# Literature values as cited in patent publication US20020028792A1, “Combinations of bisphosphonates, estrogens and estrogenic agents” (American Home Products Corporation, priority 2000, published 2002).
# Settings: Paget's disease of the bone; 30-mg tablets
smiles,measurement,value
O=P(O)(O)C(O)(Cc1cccnc1)P(=O)(O)O [Risedronate],effectiveness in clinical trials,effective
